From PubChem BioAssay (NCI)
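Tested at 5 concentrations; 48 h exposure; 96-well plates; endpoints linearly interpolated, else capped at highest concentration. Abbreviation: GI50, concentration required for 50% inhibition of growth. At the TGI there is no net growth.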

Tests used:
Assay in all cases: inhibition of tumour cell growth, NCI panel, 48 h
786-0 renal = tested on: 786-0 renal
A498 renal = tested on: A498 renal
A549 NSCLC = tested on: A549 NSCLC
ACHN renal = tested on: ACHN renal
BT-549 breast = tested on: BT-549 breast
CAKI-1 renal = tested on: CAKI-1 renal
CCRF-CEM leukemia = tested on: CCRF-CEM leukemia
COLO 205 colon = tested on: COLO 205 colon
DU-145 prostate = tested on: DU-145 prostate
EKVX NSCLC = tested on: EKVX NSCLC
HCC-2998 colon = tested on: HCC-2998 colon
HCT-116 colon = tested on: HCT-116 colon
HCT-15 colon = tested on: HCT-15 colon
HL-60(TB) leukemia = tested on: HL-60(TB) leukemia
HOP-62 NSCLC = tested on: HOP-62 NSCLC
HOP-92 NSCLC = tested on: HOP-92 NSCLC
HS 578T breast = tested on: HS 578T breast
HT29 colon = tested on: HT29 colon
IGROV1 ovarian = tested on: IGROV1 ovarian
K-562 leukemia = tested on: K-562 leukemia
KM12 colon = tested on: KM12 colon
LOX IMVI melanoma = tested on: LOX IMVI melanoma
M14 melanoma = tested on: M14 melanoma
MCF7 breast = tested on: MCF7 breast
MDA-MB-231 breast = tested on: MDA-MB-231 breast
MDA-MB-435 = tested on: MDA-MB-435
MOLT-4 leukemia = tested on: MOLT-4 leukemia
NCI-H226 lung = tested on: NCI-H226 lung
NCI-H23 lung = tested on: NCI-H23 lung
NCI-H460 lung = tested on: NCI-H460 lung
NCI-H522 lung = tested on: NCI-H522 lung
NCI/ADR-RES ovarian = tested on: NCI/ADR-RES ovarian
OVCAR-3 ovarian = tested on: OVCAR-3 ovarian
OVCAR-4 ovarian = tested on: OVCAR-4 ovarian
OVCAR-5 ovarian = tested on: OVCAR-5 ovarian
OVCAR-8 ovarian = tested on: OVCAR-8 ovarian
PC-3 prostate = tested on: PC-3 prostate
RPMI-8226 leukemia = tested on: RPMI-8226 leukemia
RXF 393 renal = tested on: RXF 393 renal
SF-268 CNS = tested on: SF-268 CNS
SF-295 CNS = tested on: SF-295 CNS
SF-539 CNS = tested on: SF-539 CNS
SK-MEL-2 melanoma = tested on: SK-MEL-2 melanoma
SK-MEL-28 melanoma = tested on: SK-MEL-28 melanoma
SK-MEL-5 melanoma = tested on: SK-MEL-5 melanoma
SK-OV-3 ovarian = tested on: SK-OV-3 ovarian
SN12C renal = tested on: SN12C renal
SNB-19 CNS = tested on: SNB-19 CNS
SNB-75 CNS = tested on: SNB-75 CNS
SR leukemia = tested on: SR leukemia
SW-620 colon = tested on: SW-620 colon
T-47D breast = tested on: T-47D breast
TK-10 renal = tested on: TK-10 renal
U251 CNS = tested on: U251 CNS
UACC-257 melanoma = tested on: UACC-257 melanoma
UACC-62 melanoma = tested on: UACC-62 melanoma
UO-31 renal = tested on: UO-31 renal

With `O[C@H](CN1CC1)[C@@H](O)CN1CC1` as the compound, how does the GI50 (786-0 renal) read?
The GI50 was 3.42 µM.

What about the TGI (786-0 renal) of the same compound?
Its TGI is 13.5 µM.

And the GI50 (A498 renal)?
Its GI50 is 5.24 µM.

What about the TGI (A498 renal) of the same compound?
The TGI was 21.7 µM.

What about the GI50 (A549 NSCLC) of the same compound?
The GI50 was 7.28 µM.

What about the TGI (A549 NSCLC) of the same compound?
The TGI was over 100 µM.

And the GI50 (ACHN renal)?
The GI50 was 0.499 µM.

And the TGI (ACHN renal)?
Its TGI is 14.7 µM.

What about the GI50 (BT-549 breast) of the same compound?
The GI50 was 12.6 µM.

What about the TGI (BT-549 breast) of the same compound?
The TGI was 60.9 µM.

And the GI50 (CAKI-1 renal)?
The GI50 was 0.423 µM.

What about the TGI (CAKI-1 renal) of the same compound?
Its TGI is 2.85 µM.

And the GI50 (CCRF-CEM leukemia)?
The GI50 was 0.604 µM.

And the TGI (CCRF-CEM leukemia)?
Its TGI is over 100 µM.

What about the GI50 (COLO 205 colon) of the same compound?
Its GI50 is 12.4 µM.

What about the TGI (COLO 205 colon) of the same compound?
The TGI was 25.5 µM.

What about the GI50 (DU-145 prostate) of the same compound?
Its GI50 is 3.25 µM.

What about the TGI (DU-145 prostate) of the same compound?
Its TGI is 26.8 µM.

And the GI50 (EKVX NSCLC)?
Its GI50 is 15 µM.

What about the TGI (EKVX NSCLC) of the same compound?
Its TGI is 49.6 µM.

What about the GI50 (HCC-2998 colon) of the same compound?
Its GI50 is 13.8 µM.

What about the TGI (HCC-2998 colon) of the same compound?
Its TGI is 51.3 µM.

And the GI50 (HCT-116 colon)?
The GI50 was 5.83 µM.

What about the TGI (HCT-116 colon) of the same compound?
The TGI was 35.6 µM.

And the GI50 (HCT-15 colon)?
The GI50 was 10.6 µM.

What about the TGI (HCT-15 colon) of the same compound?
The TGI was 88.9 µM.

What about the GI50 (HL-60(TB) leukemia) of the same compound?
The GI50 was 1.22 µM.

And the TGI (HL-60(TB) leukemia)?
Its TGI is over 100 µM.

What about the GI50 (HOP-62 NSCLC) of the same compound?
The GI50 was 3.41 µM.

What about the TGI (HOP-62 NSCLC) of the same compound?
Its TGI is 47.2 µM.

And the GI50 (HOP-92 NSCLC)?
The GI50 was 7.62 µM.

And the TGI (HOP-92 NSCLC)?
Its TGI is 67.9 µM.

And the GI50 (HS 578T breast)?
The GI50 was 20.4 µM.

And the TGI (HS 578T breast)?
The TGI was 79.2 µM.

And the GI50 (HT29 colon)?
Its GI50 is 10.2 µM.

And the TGI (HT29 colon)?
Its TGI is 26.6 µM.

And the GI50 (IGROV1 ovarian)?
The GI50 was 10.7 µM.

What about the TGI (IGROV1 ovarian) of the same compound?
Its TGI is 33.3 µM.

And the GI50 (K-562 leukemia)?
The GI50 was 6.84 µM.

And the TGI (K-562 leukemia)?
Its TGI is over 100 µM.

And the GI50 (KM12 colon)?
The GI50 was 11.7 µM.

What about the TGI (KM12 colon) of the same compound?
The TGI was 28.1 µM.

What about the GI50 (LOX IMVI melanoma) of the same compound?
Its GI50 is 2.81 µM.

And the TGI (LOX IMVI melanoma)?
The TGI was 28.4 µM.

What about the GI50 (M14 melanoma) of the same compound?
The GI50 was 3.77 µM.

And the TGI (M14 melanoma)?
The TGI was 22.3 µM.

What about the GI50 (MCF7 breast) of the same compound?
The GI50 was 1.84 µM.

And the TGI (MCF7 breast)?
Its TGI is over 100 µM.

And the GI50 (MDA-MB-231 breast)?
The GI50 was 24 µM.

What about the TGI (MDA-MB-231 breast) of the same compound?
Its TGI is 71.6 µM.

And the GI50 (MDA-MB-435)?
Its GI50 is 10.5 µM.

What about the TGI (MDA-MB-435) of the same compound?
Its TGI is 29.8 µM.

What about the GI50 (MOLT-4 leukemia) of the same compound?
The GI50 was 0.86 µM.

What about the TGI (MOLT-4 leukemia) of the same compound?
The TGI was over 100 µM.

What about the GI50 (NCI-H226 lung) of the same compound?
Its GI50 is 3.17 µM.

And the TGI (NCI-H226 lung)?
Its TGI is 26 µM.

What about the GI50 (NCI-H23 lung) of the same compound?
Its GI50 is 3.24 µM.

And the TGI (NCI-H23 lung)?
The TGI was over 100 µM.

And the GI50 (NCI-H460 lung)?
Its GI50 is 0.496 µM.

What about the TGI (NCI-H460 lung) of the same compound?
Its TGI is 22.9 µM.

What about the GI50 (NCI-H522 lung) of the same compound?
The GI50 was 8.2 µM.

What about the TGI (NCI-H522 lung) of the same compound?
Its TGI is 83.3 µM.

And the GI50 (NCI/ADR-RES ovarian)?
The GI50 was 2.8 µM.

What about the TGI (NCI/ADR-RES ovarian) of the same compound?
The TGI was 53.1 µM.

And the GI50 (OVCAR-3 ovarian)?
Its GI50 is 13.3 µM.

And the TGI (OVCAR-3 ovarian)?
Its TGI is 35.2 µM.

What about the GI50 (OVCAR-4 ovarian) of the same compound?
The GI50 was 15.4 µM.

What about the TGI (OVCAR-4 ovarian) of the same compound?
Its TGI is over 100 µM.

What about the GI50 (OVCAR-5 ovarian) of the same compound?
Its GI50 is 11.2 µM.

And the TGI (OVCAR-5 ovarian)?
Its TGI is 48 µM.

And the GI50 (OVCAR-8 ovarian)?
Its GI50 is 3.75 µM.

What about the TGI (OVCAR-8 ovarian) of the same compound?
Its TGI is over 100 µM.

And the GI50 (PC-3 prostate)?
Its GI50 is 15.1 µM.

What about the TGI (PC-3 prostate) of the same compound?
The TGI was over 100 µM.

What about the GI50 (RPMI-8226 leukemia) of the same compound?
The GI50 was 6.74 µM.

What about the TGI (RPMI-8226 leukemia) of the same compound?
The TGI was over 100 µM.

And the GI50 (RXF 393 renal)?
The GI50 was 7.35 µM.

And the TGI (RXF 393 renal)?
Its TGI is 26.1 µM.

And the GI50 (SF-268 CNS)?
Its GI50 is 2.6 µM.

What about the TGI (SF-268 CNS) of the same compound?
Its TGI is 30.8 µM.

What about the GI50 (SF-295 CNS) of the same compound?
The GI50 was 0.382 µM.

What about the TGI (SF-295 CNS) of the same compound?
The TGI was 1.71 µM.

What about the GI50 (SF-539 CNS) of the same compound?
Its GI50 is 2.58 µM.

What about the TGI (SF-539 CNS) of the same compound?
The TGI was 15.5 µM.

What about the GI50 (SK-MEL-2 melanoma) of the same compound?
The GI50 was 41 µM.

And the TGI (SK-MEL-2 melanoma)?
The TGI was over 100 µM.

What about the GI50 (SK-MEL-28 melanoma) of the same compound?
Its GI50 is 19.5 µM.

And the TGI (SK-MEL-28 melanoma)?
The TGI was 84.7 µM.

And the GI50 (SK-MEL-5 melanoma)?
The GI50 was 13.1 µM.

What about the TGI (SK-MEL-5 melanoma) of the same compound?
The TGI was 29.2 µM.

What about the GI50 (SK-OV-3 ovarian) of the same compound?
The GI50 was 4.91 µM.

What about the TGI (SK-OV-3 ovarian) of the same compound?
The TGI was 29.9 µM.

What about the GI50 (SN12C renal) of the same compound?
Its GI50 is 1.86 µM.

What about the TGI (SN12C renal) of the same compound?
Its TGI is over 100 µM.

And the GI50 (SNB-19 CNS)?
The GI50 was 6.58 µM.

And the TGI (SNB-19 CNS)?
Its TGI is over 100 µM.

And the GI50 (SNB-75 CNS)?
The GI50 was 2.94 µM.

What about the TGI (SNB-75 CNS) of the same compound?
Its TGI is 21.4 µM.

What about the GI50 (SR leukemia) of the same compound?
Its GI50 is 0.452 µM.

What about the TGI (SR leukemia) of the same compound?
The TGI was over 100 µM.

What about the GI50 (SW-620 colon) of the same compound?
The GI50 was 4.61 µM.

What about the TGI (SW-620 colon) of the same compound?
The TGI was over 100 µM.

What about the GI50 (T-47D breast) of the same compound?
Its GI50 is 7.13 µM.

What about the TGI (T-47D breast) of the same compound?
The TGI was 66.6 µM.

What about the GI50 (TK-10 renal) of the same compound?
The GI50 was 21.3 µM.

And the TGI (TK-10 renal)?
Its TGI is 77.6 µM.

And the GI50 (U251 CNS)?
Its GI50 is 5.78 µM.

And the TGI (U251 CNS)?
Its TGI is 45.6 µM.

What about the GI50 (UACC-257 melanoma) of the same compound?
Its GI50 is 11.6 µM.

And the TGI (UACC-257 melanoma)?
Its TGI is 89.9 µM.

What about the GI50 (UACC-62 melanoma) of the same compound?
The GI50 was 3.96 µM.

What about the TGI (UACC-62 melanoma) of the same compound?
The TGI was over 100 µM.

What about the GI50 (UO-31 renal) of the same compound?
The GI50 was 2.65 µM.

And the TGI (UO-31 renal)?
The TGI was 13.1 µM.
